Values joined by “and” are separate entries in the source; they are usually repeats but may differ in a detail not shown here. Equal entries are not always repeated. Inconclusive results and toxic doses are left out. Cut-off read from the data, not from the text of the source: active = T/C of 150% or more; inactive = T/C below 125%.
System: L1210 leukemia ip in BDF1 mice, survival T/C
Assay: NCI In Vivo Anticancer Drug Screen. Data for tumor model L1210 Leukemia (intraperitoneal) in B6D2F1 (BDF1) mice
Conditions: endpoint: mean survival time, higher = longer survival
In short: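 Transplanted-tumor mice were given test agent; controls received vehicle only. Survival readings from the two groups were divided (treated over control).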

[1] = dose: 50.0 mg/kg/injection, schedule: Q04DX003 (ip), vehicle: saline with Tween-80
[2] = dose: 100.0 mg/kg/injection, schedule: Q04DX002 (ip), vehicle: saline with Tween-80
[3] = dose: 100.0 mg/kg/injection, schedule: Q04DX003 (ip), vehicle: Klucel (hydroxypropylcellulose) (HPC)
[4] = dose: 200.0 mg/kg/injection, schedule: Q04DX003 (ip), vehicle: Klucel (hydroxypropylcellulose) (HPC)
[5] = dose: 400.0 mg/kg/injection, schedule: Q04DX003 (ip), vehicle: Klucel (hydroxypropylcellulose) (HPC)
[6] = dose: 400.0 mg/kg/injection, schedule: Q01DX001 (ip), vehicle: saline
[7] = dose: 100.0 mg/kg/injection, schedule: Q01DX009 (ip), vehicle: Klucel (hydroxypropylcellulose) (HPC)
[8] = dose: 100.0 mg/kg/injection, schedule: Q04DX003 (ip), vehicle: saline with Tween-80
[9] = dose: 200.0 mg/kg/injection, schedule: Q04DX003 (ip), vehicle: saline with Tween-80
[10] = dose: 400.0 mg/kg/injection, schedule: Q01DX009 (ip), vehicle: Klucel (hydroxypropylcellulose) (HPC)
[11] = dose: 400.0 mg/kg/injection, schedule: Q04DX003 (ip), vehicle: saline with Tween-80
[12] = dose: 200.0 mg/kg/injection, schedule: Q01DX009 (ip), vehicle: Klucel (hydroxypropylcellulose) (HPC)

Measured: T/C

COc1cc(/C=N/[N+](C)(C)C)ccc1O
inactive: dose: 12.5 mg/kg/injection, schedule: Q01DX009 (ip), vehicle: saline with Tween-80 94 % of control | dose: 12.5 mg/kg/injection, schedule: Q04DX003 (ip), vehicle: saline with Tween-80 96 % of control | dose: 25.0 mg/kg/injection, schedule: Q01DX009 (ip), vehicle: saline with Tween-80 96 % of control | dose: 25.0 mg/kg/injection, schedule: Q04DX003 (ip), vehicle: saline with Tween-80 93 % of control | [1] 97 % of control

CC1(N2CCCC2)CCCCC1
inactive: dose: 50.0 mg/kg/injection, schedule: Q01DX001 (ip), vehicle: carboxymethylcellulose (CMC) 94 % of control | dose: 100.0 mg/kg/injection, schedule: Q01DX001 (ip), vehicle: carboxymethylcellulose (CMC) 99 % of control

O=[N+]([O-])/C=C/c1cc2ccccc2[nH]1
inactive: dose: 100.0 mg/kg/injection, schedule: Q01DX009 (ip), vehicle: other 96 % of control | dose: 200.0 mg/kg/injection, schedule: Q01DX009 (ip), vehicle: other 113 % of control | dose: 400.0 mg/kg/injection, schedule: Q01DX009 (ip), vehicle: other 107 % of control

CN(C)c1ccc(N=[N+]=[N-])cc1
inactive: [2] 98 % of control | dose: 200.0 mg/kg/injection, schedule: Q04DX002 (ip), vehicle: saline with Tween-80 95 % of control | dose: 400.0 mg/kg/injection, schedule: Q04DX002 (ip), vehicle: saline with Tween-80 98 % of control

Cn1ncc2ccccc2c1=O
inactive: dose: 50.0 mg/kg/injection, schedule: Q04DX003 (ip), vehicle: Klucel (hydroxypropylcellulose) (HPC) 100 % of control | [3] 100 % of control | [4] 106 % of control | [5] 110 % of control

NC(CCl)=NC1CCCC1
inactive: dose: 25.0 mg/kg/injection, schedule: Q04DX002 (ip), vehicle: saline 109 % of control | dose: 50.0 mg/kg/injection, schedule: Q04DX002 (ip), vehicle: saline 102 % of control | dose: 100.0 mg/kg/injection, schedule: Q04DX002 (ip), vehicle: saline 121 % of control

O=S(=O)(O)NC1CCCCC1
inactive: dose: 25.0 mg/kg/injection, schedule: Q01DX009 (ip), vehicle: acetone 100 % of control | dose: 50.0 mg/kg/injection, schedule: Q01DX009 (ip), vehicle: acetone 100 % of control | dose: 100.0 mg/kg/injection, schedule: Q01DX009 (ip), vehicle: acetone 100 % of control | [6] 95 % of control | dose: 800.0 mg/kg/injection, schedule: Q01DX001 (ip), vehicle: saline 90 % of control | dose: 1200.0 mg/kg/injection, schedule: Q01DX001 (ip), vehicle: saline 86 % of control | dose: 1600.0 mg/kg/injection, schedule: Q01DX001 (ip), vehicle: saline 92 % of control

c1ccc(Oc2ccc(-c3ccc(Oc4ccccc4)cc3)cc2)cc1
inactive: dose: 100.0 mg/kg/injection, schedule: Q01DX009 (ip), vehicle: saline with Tween-80 91 % of control | dose: 400.0 mg/kg/injection, schedule: Q01DX009 (ip), vehicle: saline with Tween-80 91 % of control

CC1CC/C(=C\c2ccccc2)C(=O)/C1=C/c1ccccc1 (configuration not stated)
inactive: dose: 25.0 mg/kg/injection, schedule: Q01DX009 (ip), vehicle: DMSO 92 % of control | dose: 50.0 mg/kg/injection, schedule: Q01DX009 (ip), vehicle: DMSO 94 % of control | dose: 100.0 mg/kg/injection, schedule: Q01DX009 (ip), vehicle: DMSO 94 % of control and 91 % of control | dose: 100.0 mg/kg/injection, schedule: Q04DX003 (ip), vehicle: DMSO 105 % of control | dose: 200.0 mg/kg/injection, schedule: Q01DX009 (ip), vehicle: DMSO 102 % of control | dose: 200.0 mg/kg/injection, schedule: Q04DX003 (ip), vehicle: DMSO 100 % of control | dose: 400.0 mg/kg/injection, schedule: Q04DX003 (ip), vehicle: DMSO 95 % of control

CCOc1c(OC)cc(/C=C/C(=O)NC2CC2)cc1OC
inactive: dose: 25.0 mg/kg/injection, schedule: Q01DX009 (ip), vehicle: Klucel (hydroxypropylcellulose) (HPC) 88 % of control | [7] 101 % of control and 88 % of control

ClC1=C(Cl)C2(Cl)C(Br)C(Br)C1(Cl)C2(Cl)Cl (configuration not stated)
inactive: dose: 100.0 mg/kg/injection, schedule: Q01DX009 (ip), vehicle: saline sonified 95 % of control | [3] 102 % of control | dose: 200.0 mg/kg/injection, schedule: Q01DX009 (ip), vehicle: saline sonified 96 % of control | [4] 93 % of control | dose: 400.0 mg/kg/injection, schedule: Q01DX009 (ip), vehicle: saline sonified 95 % of control | [5] 96 % of control

CCCN1CCN(c2ccccc2)CC1
inactive: dose: 25.0 mg/kg/injection, schedule: Q04DX003 (ip), vehicle: saline 90 % of control | dose: 50.0 mg/kg/injection, schedule: Q04DX003 (ip), vehicle: saline 97 % of control | dose: 100.0 mg/kg/injection, schedule: Q04DX003 (ip), vehicle: saline 92 % of control

O=NO.O=N[O-].O=N[O-].[Co+3].[NH-]CC[N-]CCO.[NH-]CC[N-]CCO
inactive: dose: 25.0 mg/kg/injection, schedule: Q01DX009 (ip), vehicle: water 107 % of control | dose: 25.0 mg/kg/injection, schedule: Q04DX003 (ip), vehicle: water 100 % of control | dose: 50.0 mg/kg/injection, schedule: Q01DX009 (ip), vehicle: water 106 % of control and 107 % of control | dose: 50.0 mg/kg/injection, schedule: Q04DX003 (ip), vehicle: water 103 % of control | dose: 100.0 mg/kg/injection, schedule: Q01DX009 (ip), vehicle: water 111 % of control | dose: 100.0 mg/kg/injection, schedule: Q04DX003 (ip), vehicle: water 98 % of control and 101 % of control

CCOC(=O)c1c(NC(=O)CCC(=O)Nc2sc(C)c(C)c2C(=O)OCC)sc(C)c1C
inactive: [1] 88 % of control | [7] 90 % of control | [8] 98 % of control | [9] 90 % of control | [10] 88 % of control | [11] 88 % of control

O=c1[nH]c2ccccc2c2ccccc12
inactive: [8] 92 % of control | [9] 97 % of control | [11] 95 % of control

NC(=O)c1c(Cl)cccc1Cl
inactive: [3] 111 % of control | [4] 101 % of control | [5] 101 % of control

COc1ccc(OC)c(NC(=S)NNC(=S)NNc2ccccc2)c1
inactive: dose: 100.0 mg/kg/injection, schedule: Q04DX002 (ip), vehicle: Klucel (hydroxypropylcellulose) (HPC) 101 % of control | dose: 200.0 mg/kg/injection, schedule: Q04DX002 (ip), vehicle: Klucel (hydroxypropylcellulose) (HPC) 104 % of control | dose: 400.0 mg/kg/injection, schedule: Q04DX002 (ip), vehicle: Klucel (hydroxypropylcellulose) (HPC) 93 % of control

N#CC(N)=NC1CCC(C2CCC(O)CC2)CC1 (configuration not stated)
inactive: [7] 94 % of control | [12] 96 % of control | [10] 96 % of control

CCCC(=O)C(CC)C(OC(C)=O)(C(F)(F)F)C(F)(F)F (configuration not stated)
inactive: dose: 75.0 mg/kg/injection, schedule: Q01DX009 (ip), vehicle: Klucel (hydroxypropylcellulose) (HPC) 87 % of control | dose: 150.0 mg/kg/injection, schedule: Q01DX009 (ip), vehicle: Klucel (hydroxypropylcellulose) (HPC) 89 % of control | dose: 300.0 mg/kg/injection, schedule: Q01DX009 (ip), vehicle: Klucel (hydroxypropylcellulose) (HPC) 87 % of control

N#CCC(=O)NCCc1ccccn1
inactive: dose: 25.0 mg/kg/injection, schedule: Q04DX002 (ip), vehicle: saline with Tween-80 93 % of control | dose: 50.0 mg/kg/injection, schedule: Q04DX002 (ip), vehicle: saline with Tween-80 97 % of control | [2] 98 % of control and 101 % of control

CC(=O)c1cccc(NC(=O)Oc2ccc(Cl)cc2Cc2ccccc2)c1
inactive: [7] 101 % of control | [12] 101 % of control | [10] 95 % of control

Oc1ccc2c(c1)CNCC2
inactive: dose: 100.0 mg/kg/injection, schedule: Q01DX001 (ip), vehicle: saline 96 % of control | dose: 200.0 mg/kg/injection, schedule: Q01DX001 (ip), vehicle: saline 98 % of control | [6] 102 % of control

c1ccc(-c2nn(-c3ccccc3)[n+](-c3cccc4ccccc34)n2)cc1
inactive: dose: 1.0 mg/kg/injection, schedule: Q01DX015 (ip), vehicle: carboxymethylcellulose (CMC) 100 % of control | dose: 2.0 mg/kg/injection, schedule: Q01DX015 (ip), vehicle: carboxymethylcellulose (CMC) 102 % of control | dose: 4.0 mg/kg/injection, schedule: Q01DX015 (ip), vehicle: carboxymethylcellulose (CMC) 102 % of control | dose: 8.0 mg/kg/injection, schedule: Q01DX015 (ip), vehicle: carboxymethylcellulose (CMC) 105 % of control

Reference: PubChem BioAssay AID248 (DTP/NCI, 2004)
